Source: patent US9347077B2, “Over-expression of a putative oxidoreductase (UcpA) for increasing furfural or 5-hydroxymethylfurfural tolerance” (UNIVERSITY OF FLORIDA RESEARCH FOUNDATION, INCORPORATED, priority 2011, dated 2016)

Tested on: oxidoreductase gene mRNA in LY180
Experiment: Comparison of mRNA levels before and after furfural addition (expression array)
Format: cell-based, Escherichia coli
Conditions: 1.5 g/L furfural addition in LY180
Description: Analysis of mRNA as a measure of gene expression was performed as previously described (Miller et al., 2009a). Cultures were grown using 4 separate 500-ml fermentation vessels per strain. Initial samples (control) were removed for RNA extraction when the culture density reached approximately 0.66 g dry cell weight (dcw) liter^−1 (1.5 OD 550 nm). Furfural (15 mM) was then added and incubation continued. After 15 min incubation with furfural, cells were harvested for RNA extraction. RNA was submitted to NimbleGen for analysis of global expression. Expression data was further analyzed using ArrayStar and Excel.
UcpA was discovered accidentally as a beneficial gene for furfural tolerance during a search for E. coli NADH-utilizing oxidoreductase genes that could reduce furfural and confer resistance. […] We began by comparing expression levels of all E. coli genes in the absence of furfural and in the presence of 15 mM furfural (Table 1). […] These were further sorted to identify 5 candidate oxidoreductases that are known or putative users of NADH and have a 3-fold or higher expression level in the presence of 15 mM furfural. One of the genes was fucO, a gene previously discovered to reduce furfural using NADH and to increase furfural tolerance in E. coli. Four new candidates were identified. Two were operons encoding subunits (xdhABC and YeiTA) and two were monocistronic (ucpA and aldA). These 4 candidates are shown in bold type in Table 2.

Which “Fold increase of mRNA, yagQ” value (b0283-b0286 yagQRST, 1st value) does the source give for `O=Cc1ccco1` [furfural] here?
Its value is 2.2 fold.

And the “Fold increase of mRNA, yagR” value (b0283-b0286 yagQRST, 2nd value)?
Its value is 2.3 fold.

What about the “Fold increase of mRNA, yagS” value (b0283-b0286 yagQRST, 3rd value) of the same molecule?
Its value is 4.7 fold.

What about the “Fold increase of mRNA, yagT” value (b0283-b0286 yagQRST, 4th value) of the same molecule?
Its value is 3.5 fold.

And the “Fold increase of mRNA, ykgE” value (b0306)?
Its value is 2.0 fold.

What about the “Fold increase of mRNA, frmB” value (b0355-b0356 frmBA, 1st value) of the same molecule?
The value was 4.4 fold.

What about the “Fold increase of mRNA, frmA” value (b0355-b0356 frmBA, 2nd value) of the same molecule?
The value was 5.7 fold.

And the “Fold increase of mRNA, yajO” value (b0419)?
Its value is 2.6 fold.

What about the “Fold increase of mRNA, ybdH” value (b0599) of the same molecule?
Its value is 3.0 fold.

And the “Fold increase of mRNA, sdhA” value (b0723-b0724 sdhAB, 1st value)?
Its value is 5.3 fold.

And the “Fold increase of mRNA, sdhB” value (b0723-b0724 sdhAB, 2nd value)?
The value was 5.8 fold.

What about the “Fold increase of mRNA, ybiC” value (b0801) of the same molecule?
The value was 2.2 fold.

What about the “Fold increase of mRNA, wrbA” value (b1004) of the same molecule?
The value was 3.0 fold.

What about the “Fold increase of mRNA, yciW” value (b1287) of the same molecule?
Its value is 2.4 fold.

And the “Fold increase of mRNA, ydbC” value (b1406)?
The value was 2.9 fold.

And the “Fold increase of mRNA, aldA” value (b1415)?
The value was 4.2 fold.

And the “Fold increase of mRNA, ydcW” value (b1444)?
The value was 2.5 fold.

And the “Fold increase of mRNA, yncB” value (b1449)?
The value was 2.6 fold.

And the “Fold increase of mRNA, nemA” value (b1650)?
Its value is 6.4 fold.

And the “Fold increase of mRNA, yobF” value (b2137)?
Its value is 8.5 fold.

And the “Fold increase of mRNA, yeiT” value (b2146-b2147 yeiTA, 1st value)?
The value was 3.1 fold.

And the “Fold increase of mRNA, yeiA” value (b2146-b2147 yeiTA, 2nd value)?
The value was 3.0 fold.

What about the “Fold increase of mRNA, yeiQ” value (b2172) of the same molecule?
The value was 2.3 fold.

And the “Fold increase of mRNA, ucpA” value (b2426)?
The value was 4.5 fold.

And the “Fold increase of mRNA, yphC” value (b2545)?
Its value is 2.3 fold.

What about the “Fold increase of mRNA, fucO” value (b2799) of the same molecule?
The value was 4.4 fold.

And the “Fold increase of mRNA, xdhABC” value (b2868)?
The value was 5.8 fold.

What about the “Fold increase of mRNA, ygfS” value (b2886) of the same molecule?
Its value is 2.1 fold.

And the “Fold increase of mRNA, yqfA” value (b2899)?
Its value is 2.2 fold.

And the “Fold increase of mRNA, yghZ” value (b3001)?
Its value is 2.0 fold.

And the “Fold increase of mRNA, yqhD” value (b3011)?
Its value is 4.6 fold.

What about the “Fold increase of mRNA, dkgA” value (b3012) of the same molecule?
Its value is 5.4 fold.

And the “Fold increase of mRNA, yiaK” value (b3572)?
Its value is 2.4 fold.

What about the “Fold increase of mRNA, aldB” value (b3588) of the same molecule?
The value was 5.7 fold.
